Experimental findings from PubChem BioAssay AID1996 are described below.

Values after ≈ are worked out from the molar mass of the structure shown. Some results are limits rather than exact numbers.

As usually defined, the kinetic solubility is the concentration staying in solution when a stock, usually in DMSO, is diluted into the medium.

For this data set the following is noted: buffer; pH 7.4; 200.0 µM.
For `CC(NC(=O)COC(=O)C1CC1C)c1ccccc1` (stereo not drawn), the solubility (kinetic) was > 39.2 µg/mL. The same measure for `O=C(Nc1ccc2ncccc2c1)c1ccccc1Br`: 3.3 µg/mL (≈ 10.1 µM); for `O=C(CN1CCN(Cc2ccccc2)CC1)Nc1nc2ccccc2s1`: 47.4 µg/mL (≈ 129 µM). In turn, `COc1ccc(OC)c(/C=C/C(=O)OCC(=O)N2C(C)CCCC2C)c1` (stereo not drawn) yielded a kinetic solubility of 44.1 µg/mL (≈ 122 µM). Then `NC(=O)c1ccc(OCC(=O)N2CCNC2=O)cc1`, with > 39.5 µg/mL; and `Cl.O=C(O)C1=CCCNC1`, with > 24.5 µg/mL; and `O=C(O)C1Cc2ccccc2CN1C(=O)CCl` (stereo not drawn), with > 38.1 µg/mL.

Regarding `CCC(C)[C@H](NC(=O)N1CCC(Cc2ccccc2)CC1)C(=O)O` (stereo partly drawn), the solubility (kinetic) was > 49.9 µg/mL. The same measure for `Cn1c(N)c(C(=O)COC(=O)c2cc3ccccc3cc2O)c(=O)n(C)c1=O`: 3.6 µg/mL (≈ 9.39 µM).

In the case of `FC(F)(F)c1ccccc1-n1c(-c2cnccn2)n[nH]c1=S`, the kinetic solubility is > 48.5 µg/mL. For `O=C(O)CN1C(=O)C2(OCCO2)c2cc(Br)ccc21`, the kinetic solubility is > 49.2 µg/mL. The same measure for `COc1ccccc1OCCn1c(C)c(C=O)c2ccccc21`: 1 µg/mL (≈ 3.23 µM). The same measure for `Cn1cnnc1SCC(=O)Nc1ccc(N2CCOCC2)cc1`: > 50 µg/mL; for `CC(C)n1cnc2cc(NC(=O)c3ccco3)ccc21`: > 40.4 µg/mL; for `Cc1noc(C)c1C(=O)OCC(=O)NCc1ccc(Cl)cc1`: 15.6 µg/mL (≈ 48.3 µM).

As to `CC(=O)Nc1ccccc1OC(C)C(=O)N1CC(C)CC(C)C1` (stereo not drawn), the solubility (kinetic) is > 47.8 µg/mL. The same measure for `Cc1ccc(S(=O)(=O)Nc2nc3ccccc3nc2N2CCOCC2)cc1`: > 57.7 µg/mL.

As to `CC(C)On1c(SCC(=O)N(C)C)nc2ccccc2c1=O`, the kinetic solubility is > 48.2 µg/mL. Turning to `CC(C)Nc1nc(-c2cccnc2)nc(-c2ccccc2)c1C#N`, the solubility (kinetic) is < 0.1 µg/mL. Then `CCOc1ccccc1NC(=S)NCc1cccn1C`, with 38.5 µg/mL (≈ 133 µM).

Take `CC(C)c1ccc(OCC(=O)Nc2ccc3oc(=O)ccc3c2)cc1`: the solubility (kinetic) was < 0.7 µg/mL. Then `O=C(COc1ccc2cc(Br)ccc2c1Br)N1CCOCC1`, with 13.9 µg/mL (≈ 32.4 µM); and `O=C(Nc1ccc(Cl)cc1Cl)c1ccc2ncsc2c1`, with 0.4 µg/mL (≈ 1.24 µM). Then `Cc1ccc(S(=O)(=O)NCC(=O)OCC(=O)Nc2cccc(S(=O)(=O)N3CCOCC3)c2)cc1`, with > 76.7 µg/mL; and `Cc1ccc(C)c(NC(=S)Nc2cccnc2)c1`, with > 38.6 µg/mL. Then `COc1ccc([N+](=O)[O-])cc1NC(=O)COC(=O)C=C(C)C`, with 1.1 µg/mL (≈ 3.57 µM); and `CCNC(=O)CC1C(=O)N(c2ccc(C)cc2)C(=O)N1CCOC` (stereo not drawn), with > 50 µg/mL.

Consider `Cc1nc2ccccc2c(=O)n1-c1ccc(Cl)c(Cl)c1`, for which the kinetic solubility was 44 µg/mL (≈ 144 µM).

Take `O=S(=O)(c1ccccc1)N(CC(O)CN1CCCC1)c1ccccc1` (stereo not drawn): the solubility (kinetic) was 50 µg/mL (≈ 139 µM).

Take `O=C(N/C(=C\c1ccco1)C(=O)N1CCOCC1)c1ccco1`: the solubility (kinetic) is > 47.4 µg/mL.

For the compound `CC1CCCN(C2(O)C(=O)Nc3ccc(Br)cc32)C1` (stereo not drawn), the solubility (kinetic) is > 48.8 µg/mL. Then `Cc1cccc(C)c1NC(=O)CN.Cl`, with > 32.2 µg/mL. In the case of `N/C(=N/O)c1cccn1Cc1ccccc1[N+](=O)[O-]`, the solubility (kinetic) is > 39 µg/mL. Then `CCN(c1ccccc1)S(=O)(=O)c1ccc(OC)c(NC(=O)C2CCC2)c1`, with 23 µg/mL (≈ 59.2 µM).

Regarding `COc1ccc(C(C)=O)cc1COC(=O)CNC(=O)C1CCCCC1`, the solubility (kinetic) was > 52.1 µg/mL. The same measure for `CN1CCN(c2ccc(CNS(=O)(=O)c3ccccc3)cc2)CC1`: 12.6 µg/mL (≈ 36.5 µM); for `COc1ccc(NC(=O)C2(c3cccs3)CCOCC2)cc1`: 36.4 µg/mL (≈ 115 µM).

As for `CC(C)c1ccc(OCC(O)CN2CCCC2)cc1.Cl` (stereo not drawn), the solubility (kinetic) is 43.8 µg/mL.

In the case of `O=C(NCCCn1ccnc1)C(=O)Nc1ccccc1`, the solubility (kinetic) is 39.5 µg/mL (≈ 145 µM). The same measure for `Cl.O=C(OCCN1CCOCC1)c1ccccc1Cl`: > 45.9 µg/mL. `O=S(=O)(NCc1ccc2c(c1)OCO2)c1ccc(F)c(F)c1`: the kinetic solubility was determined as 47.7 µg/mL (≈ 146 µM). The same measure for `O=C1NC2=C(C(=O)CCC2)C(c2ccccc2[N+](=O)[O-])N1` (stereo not drawn): > 43.1 µg/mL; for `COc1ccc(C(C)=O)cc1CN1C(=O)NC(CC(C)C)C1=O` (stereo not drawn): > 47.8 µg/mL; for `Cc1nnc(SCc2cc(=O)[nH]c(=S)[nH]2)s1`: > 40.9 µg/mL.

Turning to `CCOC(=O)COc1nc(C)cc(C(F)(F)F)c1C#N`, the solubility (kinetic) was found to be 36 µg/mL (≈ 125 µM). Regarding `CC1CCCC(C)N1CC(O)COCc1ccccc1.Cl` (stereo not drawn), the kinetic solubility was > 47.1 µg/mL. The same measure for `COc1ccc2[nH]c(C(=O)N(C)c3ccc(F)cc3F)cc2c1`: < 0.3 µg/mL. Then `CC(C)OCCCNC(=O)NC(=O)c1ccc(Cl)cc1`, with 18.3 µg/mL (≈ 61.3 µM). The same measure for `COc1ccc(Br)cc1CNCCc1ccc2c(c1)OCO2`: 52.3 µg/mL (≈ 144 µM); for `CC1CC(C)CN(C(=O)c2cccc3c2-c2ccccc2C3=O)C1` (stereo not drawn): 5 µg/mL (≈ 15.7 µM). On to `Cc1c(/C=C2\NC(=O)NC2=O)c2ccccc2n1C`, for which the solubility (kinetic) was 36.9 µg/mL (≈ 145 µM). Then `COC(=O)c1sccc1NC(=O)C1CC1`, with 21.8 µg/mL (≈ 96.8 µM).

For the compound `O=[N+]([O-])c1ccc2nc(-c3ccccn3)[nH]c2c1`, the kinetic solubility came out at 5 µg/mL (≈ 20.8 µM). The same measure for `Cc1cccc(C)c1OCCCCN1CCNCC1.O=C(O)C(=O)O`: 46 µg/mL; for `CCCC1(c2ccccc2)NC(=O)N(CC(=O)Nc2ccc3c(c2)OCCO3)C1=O` (stereo not drawn): 36 µg/mL (≈ 87.9 µM). The same measure for `O=c1cc(O)c2ccccc2n1Cc1ccccc1F`: > 40.4 µg/mL; for `CN(CCOc1ccccc1)CC(O)COc1ccccc1` (stereo not drawn): 28.5 µg/mL (≈ 94.6 µM); for `Cn1c(C(=O)c2ccccc2[N+](=O)[O-])nc2ccccc21`: 36.1 µg/mL (≈ 128 µM). Then `NC(=O)c1cc[n+](Cc2ccccc2Cl)cc1.[Br-]`, with > 49.1 µg/mL; and `O=S(=O)(/N=C(/c1ccccc1)N1CCOCC1)c1ccc(F)cc1F`, with > 55 µg/mL; and `C=CCOc1c(Br)cc(/C=C2/C(=O)ON=C2C)cc1OC`, with 44.3 µg/mL (≈ 126 µM).

For the compound `C[C@H](NC(=O)c1ccco1)C(=O)Nc1cc(S(=O)(=O)N2CCCC2)ccc1OCC(F)(F)F`, the kinetic solubility was > 73.4 µg/mL. Then `CSc1ccc(/C=C/C(=O)N2CCCN(C)CC2)cc1.Cl`, with 44.1 µg/mL; and `CC(C(=O)NCc1ccccc1)N1CCN(c2ccc(F)cc2)CC1` (stereo not drawn), with > 51.2 µg/mL; and `O=C(Cc1ccc(F)cc1)Nc1nccs1`, with 34.4 µg/mL (≈ 146 µM). For the compound `CCOC(=O)c1cnc2cc(F)c(F)cc2c1N1CCN(C)CC1`, the kinetic solubility was determined as 30.7 µg/mL (≈ 91.5 µM). Take `CCn1c(=O)c([N+](=O)[O-])c(NCCCn2ccnc2)c2ccccc21`: the kinetic solubility is > 51.2 µg/mL. Then `Cc1cccc(NC(=S)NCCc2ccc(F)cc2)c1C`, with 2.8 µg/mL (≈ 9.26 µM).

In the case of `Cc1onc(-c2ccccc2)c1-c1ccnc(N)n1`, the solubility (kinetic) was found to be 33.8 µg/mL (≈ 134 µM).

Turning to `O=C(CCc1ccccc1)Nc1ccc(S(=O)(=O)NC2=NCCCCC2)cc1`, the kinetic solubility was 56.6 µg/mL (≈ 142 µM). Then `CC(C)C(C)NC(=O)COc1ccc(OCc2ccccc2)cc1` (stereo not drawn), with 1.9 µg/mL (≈ 5.8 µM); and `O=C(Nc1cccc2ccccc12)c1ccc([N+](=O)[O-])o1`, with 40.3 µg/mL (≈ 143 µM).

`Cc1cc(C)c(S(=O)(=O)Nc2ccccn2)c(C)c1` registered a kinetic solubility of 4.7 µg/mL (≈ 17 µM). The same measure for `COc1ccc(CNC(=O)N[C@H](C(=O)O)C(C)C)cc1OC`: > 46.6 µg/mL.

On to `COc1cc(/C(C)=N/NC(=O)CSc2nnc(C)s2)ccc1O`, for which the kinetic solubility is > 52.9 µg/mL. The same measure for `O=C1NC2(CCCC2)Oc2ccccc21`: > 30.5 µg/mL; for `O=[N+]([O-])c1cccc(CN2CC=C(c3ccc(F)cc3)CC2)c1`: 3.3 µg/mL (≈ 10.6 µM); for `CCN(CC)CC(O)Cn1c(-c2cccc(Cl)c2)nc2cc(C)c(C)cc21` (stereo not drawn): 53.4 µg/mL (≈ 138 µM). Then `COc1cccc(CN2C(=O)NC3(CCCCCC3)C2=O)c1`, with > 45.4 µg/mL; and `CN1CCN(Cc2cc3c(cc2[N+](=O)[O-])OCO3)CC1`, with 38.3 µg/mL (≈ 137 µM); and `COc1cccc(/C=C(\CC(=O)O)c2nc3ccccc3s2)c1`, with 41.1 µg/mL (≈ 126 µM). Then `COc1ccc2oc(C(=O)OCC(=O)N3C(C)CCCC3C)c(C)c2c1` (stereo not drawn), with 31.9 µg/mL (≈ 88.8 µM); and `CS(=O)(=O)N1CCc2cc(C(=O)N3CCCC3)ccc21`, with > 44.2 µg/mL; and `COC(=O)c1ccc(S(=O)(=O)N2CCCN(Cc3ccc(F)cc3)CC2)n1C`, with > 61.4 µg/mL. For `Brc1ccc(-n2cnc(-c3ccccc3)c2)cc1`, the solubility (kinetic) came to 1 µg/mL (≈ 3.34 µM). Then `O=C(Nc1nc2cc3c(cc2s1)OCO3)C1CCCCC1`, with < 0.3 µg/mL; and `O=C1[C@@H]2C(c3ccc(F)cc3)=NO[C@@H]2C(=O)N1Cc1ccccc1`, with 7.8 µg/mL (≈ 24.1 µM).

Turning to `O=C(CCSCc1ccccc1F)NCc1cccs1`, the solubility (kinetic) is > 46.4 µg/mL.

On to `Cc1cc(C)c(S(=O)(=O)c2ccccc2F)c(=O)[nH]1`, for which the solubility (kinetic) was > 42.2 µg/mL. For `CCn1cc(CCC(=O)NCCc2ccccc2)c2ccccc21`, the kinetic solubility came to 32.8 µg/mL (≈ 102 µM).

The compound `CCNc1nc(NCC)nc(NS(=O)(=O)c2ccc(N)cc2)n1` yielded a solubility (kinetic) of 36.9 µg/mL (≈ 109 µM). Then `CN(C)CCOC(=O)C(c1ccccc1)C1(O)CCCC1.Cl` (stereo not drawn), with > 49.2 µg/mL; and `CS(=O)(=O)N1CCCC(C(=O)Nc2c(F)cccc2F)C1` (stereo not drawn), with > 47.8 µg/mL.

Consider `CC(=O)N[C@H](Cc1c[nH]c2ccccc12)C(=O)O`, for which the solubility (kinetic) is > 36.9 µg/mL. The same measure for `Cc1ccc(C(C)C)c(Oc2cnccn2)c1`: 4.3 µg/mL (≈ 18.8 µM).

In turn, `CCC(=O)N/C(=N/c1nc(C)cc(C)n1)Nc1ccc(C)cc1` displayed a solubility (kinetic) of 1.7 µg/mL (≈ 5.46 µM). The same measure for `Cc1ccc(-n2cnc3sc(C)c(C)c3c2=O)cc1`: 0.8 µg/mL (≈ 2.96 µM); for `CC(NC(=O)CNC(=O)c1cccs1)c1cccc(C(F)(F)F)c1` (stereo not drawn): 12.6 µg/mL (≈ 35.4 µM). Then `CCc1ccc(/C=C2/SC(N3CCOCC3)=NC2=O)cc1`, with 26.5 µg/mL (≈ 87.6 µM); and `COc1ccccc1NC(=O)C1CCCN1C(=O)NC1CCCCC1` (stereo not drawn), with 42.4 µg/mL (≈ 123 µM). `Cc1ccc(C(=O)OCC(=O)Nc2ccc(F)c(Cl)c2)o1` gave a solubility (kinetic) of 2.9 µg/mL (≈ 9.3 µM).

As for `NC(=O)/C=C/C(=O)Nc1ccc(Cl)cc1`, the solubility (kinetic) is > 33.7 µg/mL. For the compound `O=S1(=O)CCC(NC(=S)Nc2ccccc2)C1` (stereo not drawn), the solubility (kinetic) was > 40.6 µg/mL.
